Test results from patent EP1018003B1, “MODULATORS OF DNA CYTOSINE-5 METHYLTRANSFERASE AND METHODS FOR USE THEREOF” (The Regents of the University of California, priority 1997, dated 1999).
Blank lines part the entries; values can stand above or below the molecule they belong to.

Legend:
DCMTase = biological target: T1, DCMTase (Mus musculus, UniProt P13864); assay: Steady-state kinetic assays (methyl transfer from tritiated AdoMet to DNA); assay type: biochemical; set-up: key: C, competitive; NC, noncompetitive; UC, uncompetitive inhibition; details: product inhibition
T1 construct: a highly homogeneous, unproteolyzed preparation of DCMTase from mouse erythroleukemia cells (MEL); endogenous in cells; host or cells: mouse erythroleukemia (MEL) cells; endogenous enzyme purified per Xu et al. 1995
Method: Single-stranded DNA was heated to 90 °C and quick cooled on ice, prior to initiation of the reaction. Freeze-thawed DNA produced equivalent results. Incubations were at 37 °C for 60 minutes. […] The reaction was stopped after 60 minutes by transferring 20 μL of the reaction onto a DE 81 filter paper that was processed as described (Flynn et al., 1996). The radioactivity above the background, determined from assays without added poly(dI·dC:dI·dC), was converted to initial velocities and expressed as picomoles of methyl groups transferred to poly(dI·dC:dI·dC) per hour and plotted in double reciprocal form. […] Incubations were at 37 °C for 60 minutes. […] The GC-box b concentrations were: diamonds, 0; circles, 0.75 μM; triangles, 1.5 μM; squares, 5.0 μM. Incubations were at 37 °C for 60 minutes. […] Incubations were at 37 °C for 60 minutes. […] Incubations were at 37 °C for 60 minutes. […] The AdoHcy concentrations were: squares, 0; diamonds, 0.75 μM; circles, 1.5 μM; triangles, 3.0 μM; notched squares, 6.0 μM. Incubations were at 37 °C for 60 minutes. […] Incubations were at 37 °C for 60 minutes. […] The AdoHcy concentrations were: squares, 0; diamonds, 15 μM; circles, 30 μM. […] The standard errors associated with fitted parameters and graphical analysis of the experimental data scattered around the calculated best fit lines were also considered in making an assignment.

[1] = substrate: C[S+](CC[C@H](N)C(=O)O)C[C@H]1O[C@@H](n2cnc3c(N)ncnc32)[C@H](O)[C@@H]1O; assay: purified protein, by the assay type; details: other: true Michaelis constant, equation 2 (sequential mechanism); 20 nM DCMTase; pH 8.0

- Type of Inhibition (DCMTase; varied substrate AdoMet, fixed substrate IC): C
- Type of Inhibition (DCMTase; varied substrate IC, fixed substrate AdoMet): NC/UC
Molecule: Nc1ncnc2c1ncn2[C@@H]1O[C@H](CSCC[C@H](N)C(=O)O)[C@@H](O)[C@H]1O [AdoHcy, S-adenosyl-L-homocysteine]

B1: DCMTase (Mus musculus) (protein)
chain: MPARTAPARVPALASPAGSLPDHVRRRLKDLERDGLTEKECVREKLNLLHEFLQTEIKSQLCDLETKLHKEELSEEGYLAKVKSLLNKDLSLENGTHTLTQKANGCPANGSRPTWRAEMADSNRSPRSRPKPRGPRRSKSDSDTLSVETSPSSVATRRTTRQTTITAHFTKGPTKRKPKEESEEGNSAESAAEERDQDKKRRVVDTESGAAAAVEKLEEVTAGTQLGPEEPCEQEDDNRSLRRHTRELSLRRKSKEDPDREARPETHLDEDEDGKKDKRSSRPRSQPRDPAAKRRPKEAEPEQVAPETPEDRDEDEREEKRRKTTRKKLESHTVPVQSRSERKAAQSKSVIPKINSPKCPECGQHLDDPNLKYQQHPEDAVDEPQMLTSEKLSIYDSTSTWFDTYEDSPMHRFTSFSVYCSRGHLCPVDTGLIEKNVELYFSGCAKAIHDENPSMEGGINGKNLGPINQWWLSGFDGGEKVLIGFSTAFAEYILMEPSKEYEPIFGLMQEKIYISKIVVEFLQNNPDAVYEDLINKIETTVPPSTINVNRFTEDSLLRHAQFVVSQVESYDEAKDDDETPIFLSPCMRALIHLAGVSLGQRRATRRVMGATKEKDKAPTKATTTKLVYQIFDTFFSEQIEKYDKEDKENAMKRRRCGVCEVCQQPECGKCKACKDMVKFGGTGRSKQACLKRRCPNLAVKEADDDEEADDDVSEMPSPKKLHQGKKKKQNKDRISWLGQPMKIEENRTYYQKVSIDEEMLEVGDCVSVIPDDSSKPLYLARVTALWEDKNGQMMFHAHWFCAGTDTVLGATSDPLELFLVGECENMQLSYIHSKVKVIYKAPSENWAMEGGTDPETTLPGAEDGKTYFFQLWYNQEYARFESPPKTQPTEDNKHKFCLSCIRLAELRQKEMPKVLEQIEEVDGRVYCSSITKNGVVYRLGDSVYLPPEAFTFNIKVASPVKRPKKDPVNETLYPEHYRKYSDYIKGSNLDAPEPYRIGRIKEIHCGKKKGKVNEADIKLRLYKFYRPENTHRSYNGSYHTDINMLYWSDEEAVVNFSDVQGRCTVEYGEDLLESIQDYSQGGPDRFYFLEAYNSKTKNFEDPPNHARSPGNKGKGKGKGKGKGKHQVSEPKEPEAAIKLPKLRTLDVFSGCGGLSEGFHQAGISETLWAIEMWDPAAQAFRLNNPGTTVFTEDCNVLLKLVMAGEVTNSLGQRLPQKGDVEMLCGGPPCQGFSGMNRFNSRTYSKFKNSLVVSFLSYCDYYRPRFFLLENVRNFVSYRRSMVLKLTLRCLVRMGYQCTFGVLQAGQYGVAQTRRRAIILAAAPGEKLPLFPEPLHVFAPRACQLSVVVDDKKFVSNITRLSSGPFRTITVRDTMSDLPEIQNGASNSEIPYNGEPLSWFQRQLRGSHYQPILRDHICKDMSPLVAARMRHIPLFPGSDWRDLPNIQVRLGDGVIAHKLQYTFHDVKNGYSSTGALRGVCSCAEGKACDPESRQFSTLIPWCLPHTGNRHNHWAGLYGRLEWDGFFSTTVTNPEPMGKQGRVLHPEQHRVVSVRECARSQGFPDSYRFFGNILDRHRQVGNAVPPPLAKAIGLEIKLCLLSSARESASAAVKAKEEAATKD
- Km [1]: 1.4 ± 0.2 µM
